Experimental data from paper PMC9402538, “Rational design of a sensitivity-enhanced tracer for discovering efficient APC–Asef inhibitors” (Nature Communications, 2022).
Values joined by “and” are separate entries in the source; they are usually repeats but may differ in a detail not shown here. Identical values can stand only once. “Also recorded” adds a separate entry of the source. Like-named read-outs stand apart in the source and are kept apart here. Where a SMILES comes first, the peptide text is derived from it. The star is where a group is joined. Benzoyl(4-OMe) = COc1ccc(C(=O)*)cc1

Legend:
[1] = molecular target: T1, APC (303–739) (Homo sapiens, UniProt P25054); assay: FP competitive assay using tracer 7; assay type: binding; settings: for IC50: Table 3 source data
T1 sequence (P25054 303-739): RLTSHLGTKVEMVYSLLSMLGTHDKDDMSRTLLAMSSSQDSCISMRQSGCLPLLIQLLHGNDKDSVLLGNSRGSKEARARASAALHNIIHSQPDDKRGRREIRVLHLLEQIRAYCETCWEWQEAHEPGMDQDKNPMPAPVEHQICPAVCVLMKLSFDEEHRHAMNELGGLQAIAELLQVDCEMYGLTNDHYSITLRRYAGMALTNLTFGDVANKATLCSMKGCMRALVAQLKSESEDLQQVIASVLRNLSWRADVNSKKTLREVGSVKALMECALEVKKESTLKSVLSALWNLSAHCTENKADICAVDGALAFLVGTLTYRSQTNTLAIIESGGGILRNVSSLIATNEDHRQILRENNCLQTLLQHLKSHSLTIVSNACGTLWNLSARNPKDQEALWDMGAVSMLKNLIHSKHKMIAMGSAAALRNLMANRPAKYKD
Summary of the method: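 Peptide dilutions were first incubated 1 h at room temperature with APC (303–739) in HEPES pH 7.5 buffer containing 300 mM NaCl, EDTA and DTT. Added FITC tracer 7 (400 nM stock) displaced over a further 1.5 h before polarization reading. IC50 values came from nonlinear regression fits of triplicate data.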

[2] = system: SW480 cells; assay: Wound-healing migration assay, SW480; assay type: cell-based
Procedure: Cells were seeded in 12-well plates at a density of 4 × 10^5 cells per well and grown until 90% confluence in DMEM supplemented with 10% FBS. The monolayers were scratched with a sterile pipette tip (QSP; T104TLS-Q). The cells were washed with 1× PBS and then cultured in culture medium containing 1% FBS and peptides or peptidomimetics. The corresponding photos were captured at the time of scratching and after 24–72 h.

Compound: COc1ccc(C(=O)N[C@@H](C)C(=O)NCC(=O)N[C@@H](CCC(=O)O)C(=O)N[C@@H](CO)C(=O)N[C@@H](CC(C)C)C(=O)N[C@@H](Cc2ccc(O)cc2)C(=O)N[C@@H](CCC(=O)O)C(N)=O)cc1 [MAI-516] ({Benzoyl(4-OMe)}-AGESLYE-NH2)
- mean (FP signal, FigS5) ([1]; Repeat 1, Conc. 0.0098 μM): 252
- mean (FP signal, FigS5) ([1]; Repeat 1, Conc. 0.0195 μM): 216.7
- mean (FP signal, FigS5) ([1]; Repeat 1, Conc. 0.0391 μM): 168
- mean (FP signal, FigS5) ([1]; Repeat 1, Conc. 0.0781 μM): 122
- mean (FP signal, FigS5) ([1]; Repeat 1, Conc. 0.1563 μM): 88
- mean (FP signal, FigS5) ([1]; Repeat 1, Conc. 0.3125 μM): 67
- mean (FP signal, FigS5) ([1]; Repeat 1, Conc. 0.625 μM): 54.3
- mean (FP signal, FigS5) ([1]; Repeat 1, Conc. 1.25 μM): 49
- mean (FP signal, FigS5) ([1]; Repeat 1, Conc. 2.5 μM): 46.7
- mean (FP signal, FigS5) ([1]; Repeat 1, Conc. 5 μM): 44.3
- mean (FP signal, FigS5) ([1]; Repeat 1, Conc. 10 μM): 42.7
- mean (FP signal, FigS5) ([1]; Repeat 1, Conc. 20 μM): 44.3
- IC50 ([1]; Repeat 1, read-out: IC50(μM) Repeat 1): 0.0453 µM
- mean (FP signal, FigS5) ([1]; Repeat 2, Conc. 0.0002 μM): 302.3
- mean (FP signal, FigS5) ([1]; Repeat 2, Conc. 0.0005 μM): 304.7
- mean (FP signal, FigS5) ([1]; Repeat 2, Conc. 0.001 μM): 303
- mean (FP signal, FigS5) ([1]; Repeat 2, Conc. 0.002 μM): 302.7
- mean (FP signal, FigS5) ([1]; Repeat 2, Conc. 0.0039 μM): 295.7
- mean (FP signal, FigS5) ([1]; Repeat 2, Conc. 0.0078 μM): 286.7
- mean (FP signal, FigS5) ([1]; Repeat 2, Conc. 0.0156 μM): 253.7
- mean (FP signal, FigS5) ([1]; Repeat 2, Conc. 0.0313 μM): 190.3
- mean (FP signal, FigS5) ([1]; Repeat 2, Conc. 0.0625 μM): 134.3
- mean (FP signal, FigS5) ([1]; Repeat 2, Conc. 0.125 μM): 96.3
- mean (FP signal, FigS5) ([1]; Repeat 2, Conc. 0.25 μM): 73
- mean (FP signal, FigS5) ([1]; Repeat 2, Conc. 0.5 μM): 59
- mean (FP signal, FigS5) ([1]; Repeat 2, Conc. 1 μM): 51
- mean (FP signal, FigS5) ([1]; Repeat 2, Conc. 2 μM): 48
- IC50 ([1]; Repeat 2, read-out: IC50(μM) Repeat 2): 0.0412 µM
- mean (FP signal, FigS5) ([1]; Repeat 3, Conc. 0.006 μM): 307.3
- mean (FP signal, FigS5) ([1]; Repeat 3, Conc. 0.012 μM): 294
- mean (FP signal, FigS5) ([1]; Repeat 3, Conc. 0.024 μM): 259
- mean (FP signal, FigS5) ([1]; Repeat 3, Conc. 0.049 μM): 199.7
- mean (FP signal, FigS5) ([1]; Repeat 3, Conc. 0.098 μM): 140
- mean (FP signal, FigS5) ([1]; Repeat 3, Conc. 0.195 μM): 103.3
- mean (FP signal, FigS5) ([1]; Repeat 3, Conc. 0.391 μM): 81.3
- mean (FP signal, FigS5) ([1]; Repeat 3, Conc. 0.781 μM): 68
- mean (FP signal, FigS5) ([1]; Repeat 3, Conc. 1.563 μM): 63.7
- mean (FP signal, FigS5) ([1]; Repeat 3, Conc. 3.125 μM): 58.3
- mean (FP signal, FigS5) ([1]; Repeat 3, Conc. 6.25 μM): 58.7
- mean (FP signal, FigS5) ([1]; Repeat 3, Conc. 12.5 μM): 57.7
- mean (FP signal, FigS5) ([1]; Repeat 3, Conc. 25 μM): 54.3
- mean (FP signal, FigS5) ([1]; Repeat 3, Conc. 50 μM): 56.3
- IC50 ([1]; Repeat 3, read-out: IC50(μM) Repeat 3): 0.0379 µM
- IC50 ([1]; mean of 3 repeats, read-out: IC50(μM) mean): 0.0415 µM
- Relative migration ability (single replicates) ([2]; FigS10c, relative to DMSO): 0.86 and 1.12 and 0.84
- Relative migration ability, mean ([2]; FigS10c, relative to DMSO): 0.94
- cell migration (wound healing) ([2]; SW480, MAI-516 50 μM): dose not inhibit the migration; also recorded: no apparent impact
